Converted amounts (≈) assume the structure as drawn.
Key:
Staphylococcus aureus [1] = test: Antibacterial activity against vancomycin-susceptible Staphylococcus aureus NJ after 24 hrs by Etest method; format: functional
Staphylococcus aureus [2] = test: Antibacterial activity against vancomycin-susceptible Staphylococcus aureus MI after 24 hrs by Etest method; format: functional
Staphylococcus aureus [3] = test: Antibacterial activity against vancomycin-intermediate Staphylococcus aureus BR5-1 after 24 hrs by Etest method; format: functional; conditions: BR5-1, 24 h
Staphylococcus aureus [4] = test: Antibacterial activity against vancomycin-intermediate Staphylococcus aureus BR4 after 24 hrs by Etest method; format: functional; conditions: BR4, 24 h
Staphylococcus aureus [5] = test: Antibacterial activity against vancomycin-intermediate Staphylococcus aureus BR3 after 24 hrs by Etest method; format: functional; conditions: BR3, 24 h
Staphylococcus aureus [6] = test: Antibacterial activity against vancomycin-intermediate Staphylococcus aureus BR2 after 24 hrs by Etest method; format: functional; conditions: BR2, 24 h
Staphylococcus aureus [7] = test: Antibacterial activity against vancomycin-intermediate Staphylococcus aureus BR1 after 24 hrs by Etest method; format: functional; conditions: BR1, 24 h
Staphylococcus aureus [8] = test: Antibacterial activity against vancomycin-intermediate Staphylococcus aureus 28160 after 24 hrs by Etest method; format: functional; conditions: Staphylococcus aureus, 28160, 24 h
Staphylococcus aureus [9] = test: Antibacterial activity against vancomycin-intermediate Staphylococcus aureus LIM2 after 24 hrs by Etest method; format: functional; conditions: LIM2, 24 h
Staphylococcus aureus [10] = test: Antibacterial activity against vancomycin-intermediate Staphylococcus aureus 99/3700-W after 24 hrs by Etest method; format: functional
Staphylococcus aureus [11] = test: Antibacterial activity against vancomycin-intermediate Staphylococcus aureus 99/3759-V after 24 hrs by Etest method; format: functional
Staphylococcus aureus [12] = test: Antibacterial activity against vancomycin-intermediate Staphylococcus aureus NJ after 24 hrs by Etest method; format: functional
Staphylococcus aureus [13] = test: Antibacterial activity against vancomycin-intermediate Staphylococcus aureus MI after 24 hrs by Etest method; format: functional
Staphylococcus aureus [14] = test: Antibacterial activity against vancomycin-intermediate Staphylococcus aureus Mu50 after 24 hrs by Etest method; format: functional; conditions: Mu50, 24 h
Staphylococcus aureus [15] = test: Antibacterial activity against vancomycin-susceptible Staphylococcus aureus AMC11094 after 24 hrs by Etest method; format: functional; conditions: AMC11094, 24 h
Staphylococcus aureus [16] = test: Antibacterial activity against vancomycin-susceptible Staphylococcus aureus 99/3759-V after 24 hrs by Etest method; format: functional
Staphylococcus aureus [17] = test: Antibacterial activity against vancomycin-susceptible Staphylococcus aureus 99/3700-W after 24 hrs by Etest method; format: functional
Staphylococcus aureus [18] = test: Antibacterial activity against vancomycin-susceptible Staphylococcus aureus 28160 after 24 hrs by Etest method; format: functional; conditions: Staphylococcus aureus, 28160, 24 h
Staphylococcus aureus [19] = test: Antibacterial activity against vancomycin-susceptible Staphylococcus aureus BR1 after 24 hrs by Etest method; format: functional; conditions: BR1, 24 h
Staphylococcus aureus [20] = test: Antibacterial activity against vancomycin-susceptible Staphylococcus aureus BR4 after 24 hrs by Etest method; format: functional; conditions: BR4, 24 h
Staphylococcus aureus [21] = test: Antibacterial activity against vancomycin-susceptible Staphylococcus aureus BR5-1 after 24 hrs by Etest method; format: functional; conditions: BR5-1, 24 h
Staphylococcus aureus [22] = test: Antibacterial activity against vancomycin-intermediate Staphylococcus aureus Mu50 phenotypic revertant after 24 hrs by Etest method; format: functional; conditions: Mu50, 24 h
Staphylococcus aureus [23] = test: Antibacterial activity against vancomycin-intermediate Staphylococcus aureus MI phenotypic revertant after 24 hrs by Etest method; format: functional
Staphylococcus aureus [24] = test: Antibacterial activity against vancomycin-intermediate Staphylococcus aureus 99/3759-V phenotypic revertant after 24 hrs by Etest method; format: functional
Staphylococcus aureus [25] = test: Antibacterial activity against vancomycin-intermediate Staphylococcus aureus 99/3700-W phenotypic revertant after 24 hrs by Etest method; format: functional
Staphylococcus aureus [26] = test: Antibacterial activity against vancomycin-intermediate Staphylococcus aureus LIM2 phenotypic revertant after 24 hrs by Etest method; format: functional; conditions: LIM2, 24 h
Staphylococcus aureus [27] = test: Antibacterial activity against vancomycin-intermediate Staphylococcus aureus BR1 phenotypic revertant after 24 hrs by Etest method; format: functional; conditions: BR1, 24 h
Staphylococcus aureus [28] = test: Antibacterial activity against vancomycin-intermediate Staphylococcus aureus BR5-1 phenotypic revertant after 24 hrs by Etest method; format: functional; conditions: BR5-1, 24 h
Staphylococcus aureus [29] = test: Antibacterial activity against vancomycin-susceptible Staphylococcus aureus N315-LR5-P1 assessed as inhibition of bacterial growth in Mueller-Hinton broth medium; format: functional
Staphylococcus aureus [30] = test: Antibacterial activity against vancomycin-susceptible Staphylococcus aureus N315-LR5-P1 assessed as inhibition of bacterial growth in brain heart infusion broth medium; format: functional
Staphylococcus aureus [31] = test: Antibacterial activity against vancomycin-susceptible Staphylococcus aureus N315-LR5-P1-1 assessed as inhibition of bacterial growth in Mueller-Hinton broth medium; format: functional
Staphylococcus aureus [32] = test: Antibacterial activity against vancomycin-susceptible Staphylococcus aureus N315-LR5-P1-3 assessed as inhibition of bacterial growth in Mueller-Hinton broth medium; format: functional
Staphylococcus aureus [33] = test: Antibacterial activity against vancomycin-susceptible Staphylococcus aureus N315-LR5-P1-4 assessed as inhibition of bacterial growth in Mueller-Hinton broth medium; format: functional
Staphylococcus aureus [34] = test: Antibacterial activity against vancomycin-susceptible Staphylococcus aureus N315-LR5-P1-4 assessed as inhibition of bacterial growth in brain heart infusion broth medium; format: functional; conditions: N315-LR5-P1-4, Brain
Staphylococcus aureus [35] = test: Antibacterial activity against vancomycin-susceptible Staphylococcus aureus Mu50 after 24 hrs by Etest method; conditions: Mu50, 24 h
Staphylococcus aureus [36] = test: Antibacterial activity against vancomycin-intermediate Staphylococcus aureus AMC11094 after 24 hrs by Etest method; conditions: AMC11094, 24 h
Staphylococcus aureus [37] = test: Antibacterial activity against vancomycin-intermediate Staphylococcus aureus IL after 24 hrs by Etest method
Staphylococcus aureus [38] = test: Antibacterial activity against vancomycin-intermediate Staphylococcus aureus PC after 24 hrs by Etest method
Staphylococcus aureus [39] = test: Antibacterial activity against vancomycin-intermediate Staphylococcus aureus NJ phenotypic revertant after 24 hrs by Etest method
Staphylococcus aureus [40] = test: Antibacterial activity against vancomycin-susceptible Staphylococcus aureus N315-LR5-P1-2 assessed as inhibition of bacterial growth in brain heart infusion broth medium; conditions: N315-LR5-P1-2, Brain
Staphylococcus aureus [41] = test: microbe, parasite or virus in culture; conditions: Staphylococcus aureus, 28160, 24 h
Description: Antibacterial activity against vancomycin-intermediate Staphylococcus aureus 28160 phenotypic revertant after 24 hrs by Etest method

| Structure (SMILES) | MIC (Staphylococcus aureus [1]) [µg/mL] | MIC (Staphylococcus aureus [2]) [µg/mL] | MIC (Staphylococcus aureus [3]) [µg/mL] | MIC (Staphylococcus aureus [4]) [µg/mL] | MIC (Staphylococcus aureus [5]) [µg/mL] | MIC (Staphylococcus aureus [6]) [µg/mL] | MIC (Staphylococcus aureus [7]) [µg/mL] | MIC (Staphylococcus aureus [11]) [µg/mL] | MIC (Staphylococcus aureus [12]) [µg/mL] | MIC (Staphylococcus aureus [13]) [µg/mL] | MIC (Staphylococcus aureus [14]) [µg/mL] | MIC (Staphylococcus aureus [17]) [µg/mL] | MIC (Staphylococcus aureus [19]) [µg/mL] | MIC (Staphylococcus aureus [20]) [µg/mL] | MIC (Staphylococcus aureus [21]) [µg/mL] | MIC (Staphylococcus aureus [22]) [µg/mL] | MIC (Staphylococcus aureus [24]) [µg/mL] | MIC (Staphylococcus aureus [25]) [µg/mL] | MIC (Staphylococcus aureus [27]) [µg/mL] | MIC (Staphylococcus aureus [29]) [µg/mL] | further results |
| --- | --- | --- | --- | --- | --- | --- | --- | --- | --- | --- | --- | --- | --- | --- | --- | --- | --- | --- | --- | --- | --- |
| CC(=O)NC[C@H]1CN(c2ccc(N3CCOCC3)c(F)c2)C(=O)O1 [LINEZOLID] | 3 (≈ 8.89 µM) | 3 (≈ 8.89 µM) | 1.5 (≈ 4.45 µM) | 1.5 (≈ 4.45 µM) | 1 (≈ 2.96 µM) | 1 (≈ 2.96 µM) | 1.25 (≈ 3.71 µM) | 1 (≈ 2.96 µM) | 1.25 (≈ 3.71 µM) | 1.5 (≈ 4.45 µM) | 0.38 (≈ 1.13 µM) | 3 (≈ 8.89 µM) | 1.5 (≈ 4.45 µM) | 3 (≈ 8.89 µM) | 3 (≈ 8.89 µM) | 1.5 (≈ 4.45 µM) | 1.5 (≈ 4.45 µM) | 1.25 (≈ 3.71 µM) | 1.5 (≈ 4.45 µM) | 3 (≈ 8.89 µM) | MIC (Staphylococcus aureus [8]): 1.5 µg/mL (≈ 4.45 µM); MIC (Staphylococcus aureus [9]): 1 µg/mL (≈ 2.96 µM); MIC (Staphylococcus aureus [10]): 1 µg/mL (≈ 2.96 µM); MIC (Staphylococcus aureus [15]): 3 µg/mL (≈ 8.89 µM); MIC (Staphylococcus aureus [16]): 3 µg/mL (≈ 8.89 µM); MIC (Staphylococcus aureus [18]): 3 µg/mL (≈ 8.89 µM); MIC (Staphylococcus aureus [23]): 1.5 µg/mL (≈ 4.45 µM); MIC (Staphylococcus aureus [26]): 1.5 µg/mL (≈ 4.45 µM); MIC (Staphylococcus aureus [28]): 3 µg/mL (≈ 8.89 µM); MIC (Staphylococcus aureus [30]): 3 µg/mL (≈ 8.89 µM); MIC (Staphylococcus aureus [31]): 2.5 µg/mL (≈ 7.41 µM); MIC (Staphylococcus aureus [32]): 1.75 µg/mL (≈ 5.19 µM); MIC (Staphylococcus aureus [33]): 1.5 µg/mL (≈ 4.45 µM); MIC (Staphylococcus aureus [34]): 1.5 µg/mL (≈ 4.45 µM) |
| CN[C@H](CC(C)C)C(=O)N[C@H]1C(=O)N[C@@H](CC(N)=O)C(=O)N[C@H]2C(=O)N[C@H]3C(=O)N[C@H](C(=O)N[C@H](C(=O)O)c4cc(O)cc(O)c4-c4cc3ccc4O)[C@H](O)c3ccc(c(Cl)c3)Oc3cc2cc(c3O[C@@H]2O[C@H](CO)[C@@H](O)[C@H](O)[C@H]2O[C@H]2C[C@](C)(N)[C@H](O)[C@H](C)O2)Oc2ccc(cc2Cl)[C@H]1O [VANCOMYCIN] | 3 (≈ 2.07 µM) | 1.25 (≈ 0.863 µM) | 5 (≈ 3.45 µM) | 6 (≈ 4.14 µM) | 8 (≈ 5.52 µM) | 6 (≈ 4.14 µM) | 6 (≈ 4.14 µM) | 5 (≈ 3.45 µM) | 8 (≈ 5.52 µM) | 8 (≈ 5.52 µM) | 6 (≈ 4.14 µM) | 1.5 (≈ 1.04 µM) | 1.5 (≈ 1.04 µM) | 1.5 (≈ 1.04 µM) | 1.25 (≈ 0.863 µM) | 8 (≈ 5.52 µM) | 8 (≈ 5.52 µM) | 3 (≈ 2.07 µM) | 3 (≈ 2.07 µM) | 0.75 (≈ 0.518 µM) | MIC (Staphylococcus aureus [35]): 2.5 µg/mL (≈ 1.73 µM); MIC (Staphylococcus aureus [36]): 6 µg/mL (≈ 4.14 µM); MIC (Staphylococcus aureus [37]): 6 µg/mL (≈ 4.14 µM); MIC (Staphylococcus aureus [38]): 6 µg/mL (≈ 4.14 µM); MIC (Staphylococcus aureus [39]): 5 µg/mL (≈ 3.45 µM); MIC (Staphylococcus aureus [30]): 1.25 µg/mL (≈ 0.863 µM); MIC (Staphylococcus aureus [31]): 1.25 µg/mL (≈ 0.863 µM); MIC (Staphylococcus aureus [40]): 3 µg/mL (≈ 2.07 µM); MIC (Staphylococcus aureus [32]): 2.5 µg/mL (≈ 1.73 µM); MIC (Staphylococcus aureus [33]): 3 µg/mL (≈ 2.07 µM); MIC (Staphylococcus aureus [34]): 5 µg/mL (≈ 3.45 µM); MIC (Staphylococcus aureus [41]): 3 µg/mL (≈ 2.07 µM) |

Reference: ChEMBL document CHEMBL1275529, “Improved antimicrobial activity of linezolid against vancomycin-intermediate Staphylococcus aureus” (2008)
